Molecular target: T1, recombinant IL4I1 (Homo sapiens, UniProt Q96RQ9)
T1 construct: purchased R&D Systems 5684-AO-020
T1 sequence (Q96RQ9 22-567): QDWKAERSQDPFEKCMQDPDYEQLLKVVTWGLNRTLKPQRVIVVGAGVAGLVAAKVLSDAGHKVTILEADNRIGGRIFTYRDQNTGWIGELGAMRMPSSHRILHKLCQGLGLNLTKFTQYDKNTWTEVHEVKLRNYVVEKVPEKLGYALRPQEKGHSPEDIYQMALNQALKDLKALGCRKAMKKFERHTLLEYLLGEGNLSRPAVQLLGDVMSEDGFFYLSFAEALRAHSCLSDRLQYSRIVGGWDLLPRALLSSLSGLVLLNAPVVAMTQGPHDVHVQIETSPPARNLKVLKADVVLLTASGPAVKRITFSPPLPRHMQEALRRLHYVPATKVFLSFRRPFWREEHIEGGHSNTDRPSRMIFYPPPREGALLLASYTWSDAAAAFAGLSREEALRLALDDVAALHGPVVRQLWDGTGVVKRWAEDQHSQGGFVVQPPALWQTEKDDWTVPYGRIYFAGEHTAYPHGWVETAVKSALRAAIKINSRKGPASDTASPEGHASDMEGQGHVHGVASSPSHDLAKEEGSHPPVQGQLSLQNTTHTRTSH
Test: IL4I1 Enzymatic Assay (Amplex Red/HRP coupled detection of H2O2, fluorescence)
Type: biochemical
Settings: 1 nM recombinant IL4I1; four-hour pre-incubation with compound; 1 mM each Phe, Tyr, Trp; ten-point titration
In short: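 H2O2 output was coupled to resorufin fluorescence (ex 544/em 590) via 0.05 mM Amplex Red and 1 U/mL HRP. Substrate: Phe, Tyr, Trp at 1 mM each; enzyme 1 nM, 4 h compound pre-incubation, 120 min reaction, pH 7.0 Hepes. EC50 by nonlinear four-parameter regression, 1:3 ten-point titration.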

Row | EC50 | Structure (SMILES)
1 | 4 nM | C[C@H](CO)Cn1cc(C(=O)NCc2nnc(-c3ccccc3)s2)nn1 [Example 76, (S)-1-(3-hydroxy-2-methylpropyl)-N-((5-phenyl-1,3,4-thiadiazol-2-yl)methyl)-1H-1,2,3-triazole-4-carboxamide]
2 | 880 nM | CC(NC(=O)c1cn(CC(F)F)nn1)c1ccc(-c2ccccc2)nn1 (single isomer, unassigned) [Example 348, 1-(2,2-difluoroethyl)-N-(1-(6-phenylpyridazin-3-yl)ethyl)-1H-1,2,3-triazole-4-carboxamide]
3 | 149 nM | CC(O)c1cc(C(=O)NCc2nnc(-c3ccccc3)s2)on1 (single isomer, unassigned) [Example 329, 3-(1-hydroxyethyl)-N-((5-phenyl-1,3,4-thiadiazol-2-yl)methyl)isoxazole-5-carboxamide]
4 | 6 nM | C[C@H](CO)n1cc(C(=O)NCc2nnc(-c3ccccc3)s2)nn1 [Example 303, (R)-1-(1-hydroxypropan-2-yl)-N-((5-phenyl-1,3,4-thiadiazol-2-yl)methyl)-1H-1,2,3-triazole-4-carboxamide]
5 | 7 nM | O=C(NCc1nnc(-c2ccccc2)s1)c1cn(CC(F)(F)CO)nn1 [Example 176, 1-(2,2-difluoro-3-hydroxypropyl)-N-((5-phenyl-1,3,4-thiadiazol-2-yl)methyl)-1H-1,2,3-triazole-4-carboxamide]
6 | 12 nM | O=C(NCc1nnc(-c2ccccc2)s1)c1cn(C(F)F)nn1 [Example 272, 1-(difluoromethyl)-N-((5-phenyl-1,3,4-thiadiazol-2-yl)methyl)-1H-1,2,3-triazole-4-carboxamide]
7 | 5 nM | O=C(NCc1nnc(-c2ccccc2)s1)c1cn(C2CC2(F)F)nn1 (single isomer, unassigned) [Example 130, 1-(2,2-difluorocyclopropyl)-N-((5-phenyl-1,3,4-thiadiazol-2-yl)methyl)-1H-1,2,3-triazole-4-carboxamide]
8 | 5 nM | O=C(NCc1cc(-c2ccccc2)on1)c1cn(CC(F)F)nn1 [Example 292, 1-(2,2-difluoroethyl)-N-((5-phenylisoxazol-3-yl)methyl)-1H-1,2,3-triazole-4-carboxamide]
9 | 274 nM | Cc1ccc(-n2cc(C(=O)NCc3nnc(C4CCCC4)s3)nn2)c(C)n1 [Example 325, N-((5-cyclopentyl-1,3,4-thiadiazol-2-yl)methyl)-1-(2,6-dimethylpyridin-3-yl)-1H-1,2,3-triazole-4-carboxamide]
10 | 17 nM | C[C@@H](CO)Cn1cc(C(=O)NCc2nnc(-c3ccccc3)s2)nn1 [Example 75, (R)-1-(3-hydroxy-2-methylpropyl)-N-((5-phenyl-1,3,4-thiadiazol-2-yl)methyl)-1H-1,2,3-triazole-4-carboxamide]
11 | 81 nM | Cn1cc(C(=O)NCc2nnc(-c3ccc(O)cc3)s2)nn1 [Example 295, N-[[5-(4-hydroxyphenyl)-1,3,4-thiadiazol-2-yl]methyl]-1-methyl-triazole-4-carboxamide]
12 | 27 nM | CCOCCn1cc(C(=O)NCc2nnc(-c3ccccc3)s2)nn1 [Example 91, 1-(2-ethoxyethyl)-N-((5-phenyl-1,3,4-thiadiazol-2-yl)methyl)-1H-1,2,3-triazole-4-carboxamide]
13 | 27 nM | CC(C)(C(N)=O)n1cc(C(=O)NCc2cc(-c3ccccc3)on2)nn1 [Example 271, 1-(1-amino-2-methyl-1-oxopropan-2-yl)-N-((5-phenylisoxazol-3-yl)methyl)-1H-1,2,3-triazole-4-carboxamide]
14 | 251 nM | O=C(NCc1nnc(-c2ccccc2)s1)c1cc(C(F)(F)F)no1 [Example 214, N-[(5-phenyl-1,3,4-thiadiazol-2-yl)methyl]-3-(trifluoromethyl)-1,2-oxazole-5-carboxamide]
15 | 958 nM | CN(C)C(=O)CCn1cc(C(=O)NCc2nnc(-c3ccccc3)s2)nn1 [Example 193, 1-(3-(dimethylamino)-3-oxopropyl)-N-((5-phenyl-1,3,4-thiadiazol-2-yl)methyl)-1H-1,2,3-triazole-4-carboxamide]
16 | 132 nM | C[C@H](C1COC1)n1cc(C(=O)NCc2nnc(-c3ccccc3)s2)nn1 [Example 149, (R)-1-(1-(oxetan-3-yl)ethyl)-N-((5-phenyl-1,3,4-thiadiazol-2-yl)methyl)-1H-1,2,3-triazole-4-carboxamide]
17 | 591 nM | O=C(NCc1nnc(-c2ccccc2)s1)c1nnn2ccccc12 [Example 239, N-((5-phenyl-1,3,4-thiadiazol-2-yl)methyl)-[1,2,3]triazolo[1,5-a]pyridine-3-carboxamide]
18 | 382 nM | O=C(NCc1nnc(-c2ccccc2)s1)c1cn(CC(F)(F)C(=O)O)nn1 [Example 331, 2,2-difluoro-3-(4-(((5-phenyl-1,3,4-thiadiazol-2-yl)methyl)carbamoyl)-1H-1,2,3-triazol-1-yl)propanoic acid]
19 | 21 nM | CC(C)(O)c1cc(C(=O)NCc2nnc(-c3ccccc3)s2)no1 [Example 317, 5-(2-hydroxypropan-2-yl)-N-((5-phenyl-1,3,4-thiadiazol-2-yl)methyl)isoxazole-3-carboxamide]
20 | 587 nM | CC(NC(=O)c1cn(C2CC2)nn1)c1nnc(-c2ccccc2)s1 (single isomer, unassigned) [Example 244, 1-cyclopropyl-N-(1-(5-phenyl-1,3,4-thiadiazol-2-yl)ethyl)-1H-1,2,3-triazole-4-carboxamide]
21 | 292 nM | Cc1n[nH]c(C(=O)NCc2nnc(-c3ccccc3)s2)n1 [Example 27, 3-methyl-N-((5-phenyl-1,3,4-thiadiazol-2-yl)methyl)-1H-1,2,4-triazole-5-carboxamide]
22 | 5 nM | O=C(NCc1nnc(-c2ccccc2)s1)c1cn(C[C@H](F)CO)nn1 [Example 302, (S)-1-(2-fluoro-3-hydroxypropyl)-N-((5-phenyl-1,3,4-thiadiazol-2-yl)methyl)-1H-1,2,3-triazole-4-carboxamide]
23 | 15 nM | Cc1ccc(-n2cc(C(=O)NCc3nnc(-c4ccccc4)s3)nn2)c(Cl)n1 [Example 278, 1-(2-chloro-6-methylpyridin-3-yl)-N-((5-phenyl-1,3,4-thiadiazol-2-yl)methyl)-1H-1,2,3-triazole-4-carboxamide]
24 | 542 nM | O=C(NCc1nnc(-c2ccccc2)s1)c1cn(C2CN(C(=O)C3CC3)C2)nn1 [Example 103, 1-(1-(cyclopropanecarbonyl)azetidin-3-yl)-N-((5-phenyl-1,3,4-thiadiazol-2-yl)methyl)-1H-1,2,3-triazole-4-carboxamide]
25 | 909 nM | Cc1ccc(-n2cc(C(=O)NCc3nnc(-c4ccc(F)cc4F)s3)nn2)c(C)n1 [Example 105, N-((5-(2,4-difluorophenyl)-1,3,4-thiadiazol-2-yl)methyl)-1-(2,6-dimethylpyridin-3-yl)-1H-1,2,3-triazole-4-carboxamide]
26 | 22 nM | CC1(Cn2cc(C(=O)NCc3nnc(-c4ccccc4)s3)nn2)COC1 [Example 161, 1-((3-methyloxetan-3-yl)methyl)-N-((5-phenyl-1,3,4-thiadiazol-2-yl)methyl)-1H-1,2,3-triazole-4-carboxamide]
27 | 856 nM | Cn1cc(C(=O)NCc2cc(-c3ccccc3Cl)on2)nn1 [Example 225, N-{[5-(2-chlorophenyl)-1,2-oxazol-3-yl]methyl}-1-methyl-1H-1,2,3-triazole-4-carboxamide]
